How the values were obtained:
[1] = biological target: T1, glyoxalase 1 (Glo1) (Homo sapiens, UniProt Q04760); assay: Inhibition of purified glyoxalase 1 activity (Dixon plot); format: biochemical; conditions: Dixon plot / model fit
T1 construct: Glo1 was purified from human erythrocytes as described earlier; from tissue; host or cells: human erythrocytes
T1 sequence (Q04760 2-184 limits assumed): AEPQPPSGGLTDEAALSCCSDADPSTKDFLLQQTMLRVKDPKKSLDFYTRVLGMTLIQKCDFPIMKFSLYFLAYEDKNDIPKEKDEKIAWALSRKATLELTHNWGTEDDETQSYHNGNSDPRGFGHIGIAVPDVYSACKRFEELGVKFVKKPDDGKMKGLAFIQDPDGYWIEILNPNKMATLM
Experimental: Purified Glo1 (70 mU) was incubated with increasing concentrations of different polyphenols at three substrate concentrations; and enzyme activity was recorded (n = 3). The inhibitor concentration was plotted vs. the reciprocal of enzyme activity (1/v) in Dixon plots.
Glo1 was purified from human erythrocytes as described earlier. Briefly, erythrocytes were treated with butanol/chloroform to denature hemoglobin followed by acetone and ammonium sulphate fractionation.
The determination of Glo1 (E.C.4.4.1.5) activity has been described previously. […] The inhibition constant, Ki value of the inhibitors was evaluated by Dixon plot showing the reciprocal of enzyme velocity against the inhibitor concentration at variable concentrations of the substrate. Human Glo2 (E.C.3.1.2.6) was measured using the substrate S-lactoylglutathione as described earlier.
A goodness-of-fit criterion (Akaike's information criterion, AIC) was used for falsification of incompatible inhibition models. […] Spearman's rank correlation test was applied to evaluate the correlation between the IC50 values of pro-inflammatory cytokine release and the Ki-values of various polyphenols. Data were presented as means±S.D. of at least three independent experiments. […] In all other tests, significance has been considered at values of p<0.05.

[2] = test system: brain astrocytoma 1321N1 cells; assay: Cell proliferation WST-1 assay, 1321N1; format: cell-based
Experimental: (§1) Figure 3 Growth inhibition of different tumor cell lines by polyphenols. […] Following 24-h incubation, cell proliferation was evaluated using the WST-1 assay.
(§2) Tumor cells were cultured in RPMI medium containing 10% fetal calf serum (RPMI-FCS) (PC-3, JIMT-1, MDA-MD 231) or in DMEM-FCS (astrocytoma 1321N1 cells) containing penicillin/streptomycin (100 U penicillin/ml; 100 µg streptomycin/ml) at 37°C/5% CO2. Cytosolic protein extracts of tumor cells were prepared using extraction buffer composed of 25 mM Tris, 2 mM EDTA, 10% Glycerol, 1% Triton ×100, 2 mM DTT, 1mM PMSF, pH. 7.0 containing 0.3% protease inhibitor cocktail. Protein content was determined according to Bradford. Specific activity of enzymes analyzed in cell extracts was expressed as U/mg protein.
(§3) Cell proliferation/vitality of tumor cells (96-well plates; 5000 cells/well) and primary human hepatocytes (24-well plates; 0.25×10^6 cells/well) was assayed using the WST-1 assay according to manufacturer's instructions. Trypan blue exclusion was performed by staining cells with 0.4% aqueous trypan blue solution according to the manufacturer's instructions.

[3] = test system: breast cancer JIMT-1 cells; assay: Cell proliferation WST-1 assay, JIMT-1; format: cell-based, human
Experimental: as §1, §2, §3

[4] = test system: 1321N1 cells; assay: Cell vitality by trypan blue exclusion; format: cell-based; conditions: 50 µM, 6-h incubation; control 95.6%±2.5%
From the text: (B) Cell vitality as assayed by the trypan blue exclusion test. Data represent the mean±S.D. of independent experiments (n = 6).

[5] = test system: T2, Glo1 in JIMT-1 cells; assay: Specific Glo1 activity in cytosolic extract of treated cells; format: cell-based, human; conditions: JIMT-1, 24 h
T2 construct: endogenous in cells; host or cells: JIMT-1 breast carcinoma cells (ACC 589; DSMZ)
Experimental: Cells were harvested and the specific activity of Glo1 and LDH was determined in the cytosolic extract. (B) Semi-quantitative analysis of protein content as performed by Western blot using specific antibodies against β-actin and Glo1. The blot was developed by chemoluminescense detection. […] Data represent the mean±S.D. of independent experiments (n = 6). Tumor cells were cultured in RPMI medium containing 10% fetal calf serum (RPMI-FCS) (PC-3, JIMT-1, MDA-MD 231) or in DMEM-FCS (astrocytoma 1321N1 cells) containing penicillin/streptomycin (100 U penicillin/ml; 100 µg streptomycin/ml) at 37°C/5% CO2. Cytosolic protein extracts of tumor cells were prepared using extraction buffer composed of 25 mM Tris, 2 mM EDTA, 10% Glycerol, 1% Triton ×100, 2 mM DTT, 1mM PMSF, pH. 7.0 containing 0.3% protease inhibitor cocktail. Protein content was determined according to Bradford. Specific activity of enzymes analyzed in cell extracts was expressed as U/mg protein. […] The inhibition constant, Ki value of the inhibitors was evaluated by Dixon plot showing the reciprocal of enzyme velocity against the inhibitor concentration at variable concentrations of the substrate. Human Glo2 (E.C.3.1.2.6) was measured using the substrate S-lactoylglutathione as described earlier.

[6] = test system: Glo1 in JIMT-1 cells; assay: Glo1 protein content by Western blot; format: cell-based, human; conditions: JIMT-1, 24 h
Experimental: Cells were harvested and the specific activity of Glo1 and LDH was determined in the cytosolic extract. (B) Semi-quantitative analysis of protein content as performed by Western blot using specific antibodies against β-actin and Glo1. The blot was developed by chemoluminescense detection. […] Data represent the mean±S.D. of independent experiments (n = 6).
An amount of 20 µg to 40 µg of cytosolic extract was loaded to SDS-pore gradient gels (4 to 20%) and run under reducing conditions. Proteins were blotted to cellulose nitrate membranes (Whatman Schleicher & Schuell, Dassel, Germany) and Glo1 was detected by anti-Glo1 monoclonal antibodies (1 µg/ml) (BioMac, Leipzig, Germany) in combination with goat anti-mouse Ig-HRP (1∶1000) (Dako, Hamburg, Germany). For comparison, β-actin was analyzed using rabbit anti-β-actin Ig (1∶2000) (Acris, Hiddenhausen, Germany) in conjunction with HRP-labeled goat anti-rabbit Ig (Dianova, Hamburg, Germany). Band visualization was performed by chemiluminescence detection (Boehringer, Mannheim, Germany).

[7] = test system: 1321N1 cells; assay: Glutathione (GSH) level in cytosolic extract, 1321N1; format: cell-based; conditions: 1321N1, 50 µM, 24 h
Experimental: Cells were harvested and GSH concentration was determined in the cytosolic extract. Data represent the mean±S.D. of independent experiments (n = 6).
GSH was determined using DTNB method. Briefly, cytosolic extract of tumor cells were precipitated by 5% sulfosalicylic acid neutralization, aliquots were mixed with DTNB and absorbance was read at 412 nm against a standard solution of GSH.

## COc1cc(C=CC(=O)CC(=O)C=Cc2ccc(O)c(OC)c2)ccc1O [curcumin, 1,7-bis(4-hydroxy-3-methoxyphenyl)-1,6-heptadiene-3,5-dione]
[1]
  mode of enzyme inhibition: competitive
[2]; 1321N1, 24 h, WST-1
  concentration giving strong anti-proliferative effects: above 50 µM
[2]; Homo sapiens, 1321N1, 50 µM, 24 h
  inhibition at 50 µM: ~30%
[3]; Homo sapiens, JIMT-1, 50 µM, 24 h
  inhibition at 50 µM: ~30%
[3]; JIMT-1, 24 h, WST-1
  concentration giving strong anti-proliferative effects: above 50 µM
[4]
  percentage of vital cells (trypan blue exclusion): 89.5%±2.5%
[5]
  specific Glo1 activity in treated cells: decreased dose-dependently
[6]
  Glo1 protein content (Western blot): no alteration
[7]
  GSH diminished by: approximately 20%

— publication PMC2567432 (PLoS ONE, 2008)
